Target: Amyloid-beta precursor protein (Homo sapiens, UniProt P05067)
Assay: Inhibition of human amyloid beta (1 to 40) aggregation after 24 hrs by ThT fluorescence assay

Chain of Amyloid-beta precursor protein (P05067 whole entry): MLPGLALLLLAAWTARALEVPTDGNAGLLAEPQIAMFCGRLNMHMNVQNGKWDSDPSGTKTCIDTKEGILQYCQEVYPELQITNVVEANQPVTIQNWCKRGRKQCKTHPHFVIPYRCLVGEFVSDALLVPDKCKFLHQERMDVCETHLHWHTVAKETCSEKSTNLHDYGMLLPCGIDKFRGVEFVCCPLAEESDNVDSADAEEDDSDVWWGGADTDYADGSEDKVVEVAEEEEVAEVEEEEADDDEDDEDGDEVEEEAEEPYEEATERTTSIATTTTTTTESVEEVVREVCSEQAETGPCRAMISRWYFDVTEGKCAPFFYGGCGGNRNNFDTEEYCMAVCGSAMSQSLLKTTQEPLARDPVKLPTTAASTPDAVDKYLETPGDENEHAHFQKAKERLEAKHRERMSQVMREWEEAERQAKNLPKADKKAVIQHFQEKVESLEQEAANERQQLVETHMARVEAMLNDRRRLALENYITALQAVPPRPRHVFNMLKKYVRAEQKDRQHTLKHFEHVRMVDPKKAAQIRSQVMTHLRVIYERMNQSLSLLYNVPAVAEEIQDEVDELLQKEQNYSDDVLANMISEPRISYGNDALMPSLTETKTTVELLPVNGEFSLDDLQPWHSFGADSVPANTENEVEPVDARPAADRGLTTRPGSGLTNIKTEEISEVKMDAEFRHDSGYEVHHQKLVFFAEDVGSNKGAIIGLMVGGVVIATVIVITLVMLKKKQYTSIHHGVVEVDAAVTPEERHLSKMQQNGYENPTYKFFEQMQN

Row | IC50 [µM] | SMILES
1 | 16.7 | CC(C)=CCC/C(C)=C/CC/C(C)=C/Cc1c(C)cc(O)c(O)c1O
2 | 19.9 | CC(C)=CCC/C(C)=C/CC/C(C)=C/Cc1c(C)cc(O)cc1O
3 | 221 | COC(=O)c1c(C)cc(O)c(C/C=C(\C)CC/C=C(\C)CCC=C(C)C)c1O
4 | 151 | CC(C)=CC(=O)C/C(C)=C/CC/C(C)=C/Cc1c(O)cc(C)c(C(=O)O)c1O
5 | 29.3 | COc1c(O)c(O)cc(C)c1C/C=C(\C)CC/C=C(\C)CCC=C(C)C
6 | 20.3 | CC(C)=CCC/C(C)=C/CC/C(C)=C/Cc1c(O)cc(C)c(C(=O)O)c1O [GRIFOLIC ACID]

Second part, the compound before the results:

Row | SMILES | IC50 [µM]
7 | COc1c(O)c(O)c(-c2c(C)c(C/C=C(\C)CC/C=C(\C)CCC=C(C)C)c(OC)c(O)c2O)c(C)c1C/C=C(\C)CC/C=C(\C)CCC=C(C)C | 12.3
8 | CC(C)=CCC/C(C)=C/CCC1(C)C=Cc2c(O)cc(C)cc2O1 (stereo unspecified) | 68
9 | CCCCCCCCCCCCCCC[C@@H](O)C(=O)N[C@@H](CO[C@@H]1O[C@H](CO)[C@@H](O)[C@H](O)[C@H]1O)[C@H](O)/C=C/CC/C=C(\C)CCCCCCCCC [CEREBROSIDE] | 62.7
10 | CC(C)=CCC/C(C)=C/CC[C@@]1(C)C=Cc2c(cc(C)c(C(=O)O)c2O)O1 [DAURICHROMENIC ACID] | 24.7
11 | CC(C)=CCC/C(C)=C/CC/C(C)=C/Cc1c(O)cc(C)cc1O [GRIFOLIN] | 149

From ChEMBL document CHEMBL4602629, “Isolation of three new meroterpenoids and seven known compounds from Albatrellus yasudae and their Aβ-aggregation inhibitory activity” (Bioorg Med Chem Lett, 2020)
